Source: publication PMC5949603, “Bridged bicyclic peptides as potential drug scaffolds: synthesis, structure, protein binding and stability” (Chemical Science, 2015)
Where a SMILES comes first, the peptide text is derived from it. Bridges are numbered along the chain shown (N, C = ends). [ ]: non-standard residue; d: D form.

Legend:
CALM1 (calmodulin) [1] = target: T1, CALM1 (calmodulin) (Homo sapiens, UniProt P0DP23); test: Isothermal titration calorimetry (ITC) with calmodulin; settings: 50 μM calmodulin in water, 25 °C, pH 6.5, read-out: KD (binding affinity to calmodulin by isothermal titration calorimetry)
Experimental: ITC experiments were performed using a MicroCal ITC200 from GE Healthcare. 27c and 28c were dissolved in water to a concentration of 0.7 and 0.6 mM, respectively. Calmodulin was dissolved in water at 50 μM. Optionally CaCl2 (final concentration 500 μM) or EDTA (final concentration 1 mM) were added. The peptide solution was injected into the calmodulin solution (2.5 μL of peptide per injection at an interval of 180 s, a total of 15 injections into the cell volume of 200 μL, with stirring speed of 800 rpm, at 25 °C). […] The experimental data were fitted to a theoretical titration curve (“one set of sites” model) using software supplied by Microcal, with n (number of binding sites per monomer), ΔH (binding enthalpy, kcal mol^–1) and Ka (association constant, M^–1), as adjustable parameters. Thermodynamic parameters were calculated from the Gibbs free energy equation, ΔG = ΔH – TΔS = –RT ln Ka, where ΔG, ΔH, and ΔS are the changes in free energy, enthalpy, and entropy of binding, respectively. T is the absolute temperature, and R = 1.98 cal mol^–1 K^–1.

Human calmodulin (CALM1) = target: T2, Human calmodulin (CALM1) (Homo sapiens, UniProt P0DP23); test: MicroScale Thermophoresis (MST) binding to fluorescently labeled calmodulin; settings: 10 nM labeled calmodulin, 25 °C
T2 construct: purchased Enzo Life Sciences, Lausen, Switzerland
Experimental: Human calmodulin (Enzo Life Sciences, Lausen, Switzerland) was labeled using the RED-NHS Labeling kit (NanoTemper Technologies). The labeling reaction was performed according to the manufacturer's instructions in the supplied labeling buffer applying a concentration of 20 μM protein (molar dye : protein ratio ≈ 2 : 1) at RT for 30 min. Unreacted dye was removed with the supplied dye removal columns equilibrated with MST buffer (50 mM TrisHCl pH 7.5, 150 mM NaCl, 10 mM MgCl2). The label : protein ratio was determined using photometry at 650 and 280 nm. Thereby, a ratio of 0.8 was typically achieved. The labeled calmodulin was adjusted to 20 nM with MST buffer. […]
For thermophoresis, each ligand dilution was mixed with one volume of labeled calmodulin, which leads to a final concentration of fluorescently labeled calmodulin of 10 nM and final ligand concentrations ranging from 15.3 nM to 250 μM. […] Thermophoresis was measured using a Monolith NT.115 instrument (NanoTemper Technologies GmbH) at an ambient temperature of 25 °C with 5 s/30 s/5 s laser off/on/off times, respectively. […] Data of three independently pipetted measurements were analyzed (NT.Analysis software version 1.5.41, NanoTemper Technologies) using the signal from Thermophoresis + T-Jump. […]

[2] = Human serum stability assay; format: in vitro ADME; settings: 24 h, 37 °C, 200 μM peptide
Experimental: Human serum was diluted 1 : 4 in DMEM. Selected peptide was diluted in TRIS buffer to a concentration of 400 μM. Aliquots of peptide solution (50 μL) were added to aliquots of serum (50 μL) in sterile Eppendorf tubes, to reach a peptide concentration of 200 μM during the assay. Samples were incubated at 37 celsius degree under gentle stirring (350 rpm). Different samples (triplicate) were quenched at different time points (0/1/3/6/24 h) by precipitating serum proteins through the addition of ZnSO4·7H2O (0.1 M, 100 μL) and cooling down in ice bath. Protein precipitates were pelleted under centrifugation and the supernatants were sampled and evaporated to dryness in a centrifugal evaporator. Samples were resuspended in a H2O/ACN (4 : 1) mixture and centrifuged again to remove residual protein precipitate. Supernatants were then sampled and analysed by LC-MS. Experiment controls included a precipitation control for each peptide, to test their resistance to the protein precipitation conditions, and serum blanks, to check reproducibility over different serum batches. Two peaks originating from DMEM, surviving the incubation in serum and the protein precipitation conditions were used as internal standard.

[3] = Water solubility (stated in words); format: physicochemical
CALM1 (calmodulin) [4] = target: T1, CALM1 (calmodulin); test: Capture compound mass spectrometry (CCMS) proteome profiling in HeLa cell lysate; format: binding; set-up: endogenous in cells; host or cells: HeLa cell lysate; settings: probe 5 μM, competitor 240 μM, enrichment >2-fold, triplicate
Experimental: Capture experiments were carried out in PCR strips according to the general CCMS procedure.[48] 400 μg of HeLa cell lysate at 10 μg μL^–1 was pipetted for each set in triplicate. To the competition samples, 240 μM of BBP-competitor was added as a final concentration and incubated for 30 min at 4 °C. Assay and competition samples were then incubated with BBP-capture compounds or BBP-scaffold controls at a final concentration of 5 μM for 1 hour at 4 °C on a rotating axis and irradiated for 10 min at 310 nm in a caproBox™ (caprotec bioanalytics GmbH) to promote covalent cross-linking. Streptavidin-coated magnetic beads (Invitrogen) were added to the samples and further rotated for 1 hour at 4 °C. The beads were collected using a caproMag (caprotec bioanalytics GmbH) and washed 4 times with washing buffer (caprotec bionanalytics GmbH) followed by 3 times washing with 80% acetonitrile and lastly resuspended in MS-grade water. For tryptic digestion, the magnetic beads were incubated with trypsin in 50 mM ammonium bicarbonate for 16 hours at 37 °C. The supernatant was recovered, evaporated and stored at –20 °C until mass spectrometry analysis.
Mass Spectrometry: Tryptic digests were analyzed by online nanoflow liquid chromatography tandem MS (LC-MSn) on an UltiMate 3000 RSLCnano System (Dionex, part of Thermo Fisher Scientific, Germany) coupled to a LTQ-Orbitrap Velos instrument (Thermo Fisher Scientific, Germany) through a Proxeon nanoelectrospray ion source (Proxeon, part of Thermo Fisher Scientific, Germany). For chromatographic separation samples were first loaded on a reversed phase (RP) precolumn (Acclaim PepMap100, 5 μm, 100 Å, 100 μm i.d. × 20 mm) and separated on a RP analytical column (Acclaim PepMap RSLC C18, 2 μm, 100 Å, 75 μm i.d. × 150 mm, Dionex, part of Thermo Fisher Scientific, Germany) performing a 96 min gradient (5–45 % acetonitrile, 0.1% formic acid). MS detection was performed in the data-dependent mode allowing to automatically switch between Orbitrap-MS and LTQ-MS/MS acquisition in a top 20 configuration at 60 K resolution for a full scan with subsequent collision induced dissociation (CID) fragmentation. Full scan MS spectra (from m/z 300–2000) were acquired in the Orbitrap analyzer after accumulation to a target value of 1 × 10^6 in the linear ion trap. The most intense ions (up to twenty, depending on signal intensity) with charge state ≥2 were sequentially isolated at a target value of 5000 and fragmented in the linear ion trap using low energy CID with normalized collision energy of 35%. […] All MS/MS data were analyzed using Andromeda implemented in MaxQuant.[33] […] The label free quantification option was selected with a maximal retention time window of 2 min for the alignment between LC-MS/MS runs.

For `NCCCC[C@@H]1NC(=O)CSC[C@H]2NC(=O)[C@@H](Cc3c[nH]c4ccccc34)NC(=O)[C@H](CCCCN)NC(=O)[C@H](CCC(=O)NCCCC[C@@H](C(=O)NCC(N)=O)NC(=O)[C@H](Cc3c[nH]c4ccccc34)NC2=O)NC1=O` [27c, K^2E^1Kwz^2WK^1G] ({CH2CO}-KEK[dW][dC]WKG-NH2; lactam 2-7; thioether N-5), which Kd (CALM1 (calmodulin) [1]) is on record?
The Kd was 0.8 ± 0.05 µM.

What about the Kd (Human calmodulin (CALM1); MST buffer pH 7.5, read-out: KD (binding affinity to calmodulin by microscale thermophoresis)) of the same compound?
Its Kd is 4.5 ± 1.1 µM.

And the “Stability upon incubation in human serum” value [2]?
Its value is “entirely stable”.

For `CC(C)C[C@H]1NC(=O)CC[C@@H]2NC(=O)[C@@H]3CCCN3C(=O)[C@@H](Cc3ccccc3)NC(=O)[C@@H](CCCCNC(=O)[C@@H](C)NC2=O)NC(=O)CNC1=O` [compound 1, l^1Gk^2fPE^1a^2] ([dL]G[dK][dF]PE[dA]; lactam 3-C, N-6), which Water solubility [3] is on record?
The Water solubility was “water insoluble”.

For `CC(C)C[C@@H]1NC(=O)CC[C@@H]2NC(=O)[C@@H]3CCCN3C(=O)[C@@H](Cc3ccc(O)cc3)NC(=O)[C@@H](CCCCNC(=O)[C@H](C)NC2=O)NC(=O)CNC1=O` [compound 15, L^1Gk^2yPE^1A^2] (LG[dK][dY]PEA; lactam 3-C, N-6), which “Stability upon incubation in human serum” value [2] is on record?
The value was “stable”.

With `N=C(N)NCCC[C@@H]1NC(=O)CSC[C@H]2NC(=O)[C@@H](Cc3ccccc3)NC(=O)[C@H](CCCNC(=N)N)NC(=O)[C@H](CCC(=O)NCCCC[C@@H](C(=O)NCC(N)=O)NC(=O)[C@H](Cc3ccccc3)NC2=O)NC1=O` [28c, R^2E^1Rfz^2FK^1G] ({CH2CO}-RER[dF][dC]FKG-NH2; lactam 2-7; thioether N-5) as the compound, how does the Kd (CALM1 (calmodulin) [1]) read?
The Kd was 6.8 ± 0.6 µM.

What about the “KD (binding affinity to calmodulin by microscale thermophoresis)” value (Human calmodulin (CALM1); MST buffer pH 7.5) of the same compound?
The value was “no measurable affinity”.

For K^2E^1Kwz^2WK^1GFGGK(biot) [27s], which “CALM1 (calmodulin) identified as target by CCMS” value (“CALM1 (calmodulin) identified” below) (CALM1 (calmodulin) [4]) is on record?
Its value is “specifically targeted”.

With R^2E^1Rfz^2FK^1GBGGK(biot) [28x] as the compound, how does the “CALM1 (calmodulin) identified” value (CALM1 (calmodulin) [4]) read?
Its value is “did not indicate this target”.

For K^2E^1Kwz^2WK^1GBGGK(biot) [27x], which “CALM1 (calmodulin) identified” value (CALM1 (calmodulin) [4]) is on record?
Its value is “specifically targeted”.

Which “CALM1 (calmodulin) identified” value (CALM1 (calmodulin) [4]) does the source give for R^2E^1Rfz^2FK^1GFGGK(biot) [28s] here?
Its value is “did not indicate this target”.
